Data from US10800792B2, “Inhibitors of Bruton's tyrosine kinase and method of their use” (JANSSEN PHARMACEUTICA NV, priority 2015, dated 2020).

Target: unphosphorylated-BTK kinase domain (UP-BTK), GST-tagged human BTK (389-659aa) (Homo sapiens (Human), UniProt Q06187)
Test: BTK kinase Lanthascreen binding assay
Details: pIC50 = negative log of the IC50 in molar; 60 minutes incubation, 50 nM Tracer 236
In short: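 A fluorescent tracer is bound to unphosphorylated BTK; test compound is added to compete it off; the Lanthascreen signal is read and IC50 is fitted, then reported as its negative log in molar.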

Sequence of unphosphorylated-BTK kinase domain (UP-BTK), GST-tagged human BTK (389-659aa) (Q06187 389-659): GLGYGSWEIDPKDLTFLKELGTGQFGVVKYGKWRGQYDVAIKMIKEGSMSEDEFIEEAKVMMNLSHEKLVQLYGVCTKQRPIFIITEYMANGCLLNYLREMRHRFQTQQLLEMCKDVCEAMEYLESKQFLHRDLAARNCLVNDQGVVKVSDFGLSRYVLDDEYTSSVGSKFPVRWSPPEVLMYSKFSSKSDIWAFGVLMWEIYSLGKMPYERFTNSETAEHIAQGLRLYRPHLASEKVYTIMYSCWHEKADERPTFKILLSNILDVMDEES

BTK_I_binding pIC50 | Structure (SMILES)
7.3 | C=CC(=O)N1C[C@H](NC(=O)c2sc3nccc4c3c2NC(=O)N4c2ccc(Oc3ccccc3)cc2C)[C@@H](OC)C1 [Example 54, N-((3S,4S)-1-Acryloyl-4-methoxypyrrolidin-3-yl)-5-(2-methyl-4-phenoxyphenyl)-4-oxo-4,5-dihydro-3H-1-thia-3,5,8-triazaacenaphthylene-2-carboxamide]
7.6 | C=CC(=O)N1C[C@@H](O)[C@@H](NC(=O)c2sc3nccc4c3c2NC(=O)N4c2ccc(Oc3ccccc3)cc2C)C1 [Example 58, N-((3S,4R)-1-Acryloyl-4-hydroxypyrrolidin-3-yl)-5-(2-methyl-4-phenoxyphenyl)-4-oxo-4,5-dihydro-3H-1-thia-3,5,8-triazaacenaphthylene-2-carboxamide]
7.3 | Cc1c(N2C(=O)Nc3c(C(=O)N[C@@H]4CCCN(C)C4)sc4nccc2c34)ccc(Oc2ccccc2)c1F [Example 59, (R)-5-(3-Fluoro-2-methyl-4-phenoxyphenyl)-N-(1-methylpiperidin-3-yl)-4-oxo-4,5-dihydro-3H-1-thia-3,5,8-triazaacenaphthylene-2-carboxamide]
6.8 | CCCN1CCC[C@@H](NC(=O)c2sc3nccc4c3c2NC(=O)N4c2ccc(Oc3ccccc3)cc2C)C1 [Example 60, (R)-5-(2-Methyl-4-phenoxyphenyl)-4-oxo-N-(1-propylpiperidin-3-yl)-4,5-dihydro-3H-1-thia-3,5,8-triazaacenaphthylene-2-carboxamide]
7.3 | Cc1c(N2C(=O)Nc3c(C(=O)N[C@H]4CCCOC4)sc4nccc2c34)ccc(Oc2ccccc2)c1F [Example 61, (S)-5-(3-Fluoro-2-methyl-4-phenoxyphenyl)-4-oxo-N-(tetrahydro-2H-pyran-3-yl)-4,5-dihydro-3H-1-thia-3,5,8-triazaacenaphthylene-2-carboxamide]
7.1 | C=CC(=O)N1CCC[C@@H](NC(=O)c2sc3nccc4c3c2NC(=O)N4c2ccc(CC)cc2C)C1 [Example 62, (R)—N-(1-Acryloylpiperidin-3-yl)-5-(4-ethyl-2-methylphenyl)-4-oxo-4,5-dihydro-3H-1-thia-3,5,8-triazaacenaphthylene-2-carboxamide]
7.6 | C=CC(=O)N1CCC[C@@H](NC(=O)c2sc3nccc4c3c2NC(=O)N4c2ccc(Oc3c(F)cccc3F)cc2C)C1 [Example 64, (R)—N-(1-Acryloylpiperidin-3-yl)-5-(4-(2,6-difluorophenoxy)-2-methylphenyl)-4-oxo-4,5-dihydro-3H-1-thia-3,5,8-triazaacenaphthylene-2-carboxamide]
6.6 | C=CC(=O)N1CCC[C@@H](NC(=O)c2sc3nccc4c3c2NC(=O)N4c2ccc(OC3CCOCC3)cc2C)C1 [Example 65, (R)—N-(1-Acryloylpiperidin-3-yl)-5-(2-methyl-4-((tetrahydro-2H-pyran-4-yl)oxy)phenyl)-4-oxo-4,5-dihydro-3H-1-thia-3,5,8-triazaacenaphthylene-2-carboxamide]
7.4 | C=CC(=O)N1CCC[C@@H](NC(=O)c2sc3nccc4c3c2NC(=O)N4c2ccc(OCC)cc2C)C1 [Example 66, (R)—N-(1-Acryloylpiperidin-3-yl)-5-(4-ethoxy-2-methylphenyl)-4-oxo-4,5-dihydro-3H-1-thia-3,5,8-triazaacenaphthylene-2-carboxamide]
7.5 | Cc1cc(Oc2ccccc2)ccc1N1C(=O)Nc2c(C(=O)N[C@H]3CCCOC3)sc3nccc1c23 [Example 67, (S)-5-(2-Methyl-4-phenoxyphenyl)-4-oxo-N-(tetrahydro-2H-pyran-3-yl)-4,5-dihydro-3H-1-thia-3,5,8-triazaacenaphthylene-2-carboxamide]
7.7 | C=CC(=O)N1CCC[C@@H](NC(=O)c2sc3nccc4c3c2NC(=O)N4c2c(F)cc(Oc3ccccc3)cc2F)C1 [Example 69, (R)—N-(1-Acryloylpiperidin-3-yl)-5-(2,6-difluoro-4-phenoxyphenyl)-4-oxo-4,5-dihydro-3H-1-thia-3,5,8-triazaacenaphthylene-2-carboxamide]
7.1 | Cc1cc(Oc2cccc3ccoc23)ccc1N1C(=O)Nc2c(C(=O)N[C@@H]3CCCN(C)C3)sc3nccc1c23 [Example 70, (R)-5-(4-(Benzofuran-7-yloxy)-2-methylphenyl)-N-(1-methylpiperidin-3-yl)-4-oxo-4,5-dihydro-3H-1-thia-3,5,8-triazaacenaphthylene-2-carboxamide]
7.5 | Cc1c(N2C(=O)Nc3c(C(=O)N[C@@H]4CCCOC4)sc4nccc2c34)ccc(Oc2ccccc2)c1F [Example 71, (R)-5-(3-Fluoro-2-methyl-4-phenoxyphenyl)-4-oxo-N-(tetrahydro-2H-pyran-3-yl)-4,5-dihydro-3H-1-thia-3,5,8-triazaacenaphthylene-2-carboxamide]
7.4 | COCCC(=O)N1CC[C@@H](NC(=O)c2sc3nccc4c3c2NC(=O)N4c2ccc(Oc3ccccc3)cc2C)C1 [Example 72, (R)—N-(1-(3-Methoxypropanoyl)pyrrolidin-3-yl)-5-(2-methyl-4-phenoxyphenyl)-4-oxo-4,5-dihydro-3H-1-thia-3,5,8-triazaacenaphthylene-2-carboxamide]
6.8 | COc1ccccc1Oc1ccc(N2C(=O)Nc3c(C(=O)N[C@@H]4CCCN(C)C4)sc4nccc2c34)c(C)c1 [Example 73, (R)-5-(4-(2-Methoxyphenoxy)-2-methylphenyl)-N-(1-methylpiperidin-3-yl)-4-oxo-4,5-dihydro-3H-1-thia-3,5,8-triazaacenaphthylene-2-carboxamide]
6.9 | CCN1CCC[C@@H](NC(=O)c2sc3nccc4c3c2NC(=O)N4c2ccc(Oc3ccccc3)cc2C)C1 [Example 74, (R)—N-(1-Ethylpiperidin-3-yl)-5-(2-methyl-4-phenoxyphenyl)-4-oxo-4,5-dihydro-3H-1-thia-3,5,8-triazaacenaphthylene-2-carboxamide]
7.2 | Cc1cc(Oc2ccccc2)ccc1N1C(=O)Nc2c(C(=O)N[C@@H]3CCCN(C(=O)CCO)C3)sc3nccc1c23 [Example 75, (R)—N-(1-(3-Hydroxypropanoyl)piperidin-3-yl)-5-(2-methyl-4-phenoxyphenyl)-4-oxo-4,5-dihydro-3H-1-thia-3,5,8-triazaacenaphthylene-2-carboxamide]
6.8 | CCc1ccccc1Oc1ccc(N2C(=O)Nc3c(C(=O)N[C@@H]4CCCN(C(=O)/C(C#N)=C/C5CC5)C4)sc4nccc2c34)c(C)c1 [Example 76, (R,E)-N-(1-(2-Cyano-3-cyclopropylacryloyl)piperidin-3-yl)-5-(4-(2-ethylphenoxy)-2-methylphenyl)-4-oxo-4,5-dihydro-3H-1-thia-3,5,8-triazaacenaphthylene-2-carboxamide]
6.9 | C=CC(=O)N1CC[C@@H](NC(=O)c2sc3nccc4c3c2NC(=O)N4c2ccc(Oc3ccccc3)c(C)c2C)C1 [Example 77, (R)—N-(1-Acryloylpyrrolidin-3-yl)-5-(2,3-dimethyl-4-phenoxyphenyl)-4-oxo-4,5-dihydro-3H-1-thia-3,5,8-triazaacenaphthylene-2-carboxamide]
7.3 | Cc1cc(Oc2ccccc2)ccc1N1C(=O)Nc2c(C(=O)N[C@@H]3CCCN(C(=O)CN(C)C)C3)sc3nccc1c23 [Example 78, (R)—N-(1-(2-(Dimethylamino)acetyl)piperidin-3-yl)-5-(2-methyl-4-phenoxyphenyl)-4-oxo-4,5-dihydro-3H-1-thia-3,5,8-triazaacenaphthylene-2-carboxamide]
7.5 | N#C/C(=C\C1CC1)C(=O)N1CCC[C@@H](NC(=O)c2sc3nccc4c3c2NC(=O)N4c2ccc(Oc3ccccc3)cc2F)C1 [Example 79, (R,E)-N-(1-(2-Cyano-3-cyclopropylacryloyl)piperidin-3-yl)-5-(2-fluoro-4-phenoxyphenyl)-4-oxo-4,5-dihydro-3H-1-thia-3,5,8-triazaacenaphthylene-2-carboxamide]
6.6 | C=CC(=O)N1CC[C@@H](NC(=O)c2sc3nccc4c3c2NC(=O)N4c2c(C)cc(Oc3ccccc3)cc2C)C1 [Example 81, (R)—N-(1-Acryloylpyrrolidin-3-yl)-5-(2,6-dimethyl-4-phenoxyphenyl)-4-oxo-4,5-dihydro-3H-1-thia-3,5,8-triazaacenaphthylene-2-carboxamide]
6.8 | C=CC(=O)N1CCC[C@@H](NC(=O)c2sc3nccc4c3c2NC(=O)N4c2ccc(S(F)(F)(F)(F)F)cc2C)C1 [Example 83, (R)—N-(1-Acryloylpiperidin-3-yl)-5-(2-methyl-4-(pentafluorothio)phenyl)-4-oxo-4,5-dihydro-3H-1-thia-3,5,8-triazaacenaphthylene-2-carboxamide]
6.7 | C=CC(=O)N1CCC[C@@H](NC(=O)c2sc3nccc4c3c2NC(=O)N4c2ccc(C)cc2C)C1 [Example 86, (R)—N-(1-Acryloylpiperidin-3-yl)-5-(2,4-dimethylphenyl)-4-oxo-4,5-dihydro-3H-1-thia-3,5,8-triazaacenaphthylene-2-carboxamide]
7.1 | COCCC(=O)N1CCC[C@@H](NC(=O)c2sc3nccc4c3c2NC(=O)N4c2ccc(Oc3ccccc3)c(F)c2C)C1 [Example 89, (R)-5-(3-Fluoro-2-methyl-4-phenoxyphenyl)-N-(1-(3-methoxypropanoyl)piperidin-3-yl)-4-oxo-4,5-dihydro-3H-1-thia-3,5,8-triazaacenaphthylene-2-carboxamide]
7.5 | Cc1cc(Oc2ccccc2)ccc1N1C(=O)Nc2c(C(=O)N[C@H]3CCOC3)sc3nccc1c23 [Example 90, (S)-5-(2-Methyl-4-phenoxyphenyl)-4-oxo-N-(tetrahydrofuran-3-yl)-4,5-dihydro-3H-1-thia-3,5,8-triazaacenaphthylene-2-carboxamide]
7.3 | CNCC(=O)N1CCC[C@@H](NC(=O)c2sc3nccc4c3c2NC(=O)N4c2ccc(Oc3ccccc3)cc2C)C1 [Example 91, (R)-5-(2-Methyl-4-phenoxyphenyl)-N-(1-(2-(methylamino)acetyl)piperidin-3-yl)-4-oxo-4,5-dihydro-3H-1-thia-3,5,8-triazaacenaphthylene-2-carboxamide]
